{
  "source": "paper PMC7433010",
  "about": "“Exploration of multi‐target effects of 3‐benzoyl‐5‐hydroxychromen‐2‐one in Alzheimer’s disease cell and mouse models” (Aging Cell, 2020)",
  "experiment": "MTT cytotoxicity in uninduced retinoic acid‐differentiated SH‐SY5Y cells",
  "type": "cell-based",
  "conditions": "human",
  "description": "Licochalcone A and five derivative LM compounds were tested (Figure 1a). All six compounds were soluble up to 100 μM in a cell culture medium (Figure S1a). Based on molecular weight (MW), hydrogen bond donors (HBD), hydrogen bond acceptors (HBA), and calculated octanol/water partition coefficient (cLogP), all six compounds meet Lipinski's criteria in predicting oral bioavailability (Lipinski, Lombardo, Dominy, & Feeney, 1997) (Figure S1b). […] To choose the optimal treatment dose used for the best efficacy of the candidate compounds, a specific type of biphasic dose response of a compound called hormesis should take into consideration. Evidence has shown that a wide range of pharmaceutical products display a hermetic dose‐response feature, characterized by a low‐dose stimulation and a high‐dose inhibition (Calabrese et al., 2018; Concetta Scuto et al., 2019; Pilipenko et al., 2019). Therefore, we tested the compounds at a range of doses to find the optimal dose for the best therapeutic effect and the least cytotoxicity. Firstly, MTT assay was performed using uninduced ∆K280 TauRD‐DsRed 293 and retinoic acid‐differentiated SH‐SY5Y cells following treatment with the test compounds (0.1–10 μM) for 3 (for 293 cells) or 7 (for SH‐SY5Ycells) days. […] Congo red is an amyloidogenic dye known to reduce Aβ neurotoxicity (Lorenzo & Yankner, 1994).\nLicochalcone A was purchased from Sigma-Aldrich, St. Louis, MO, USA. In-house LM compounds were synthesized and characterized by NMR spectrum as described (Lee et al., 2012, 2015, 2018). Tet-On ∆K280 TauRD-DsRed 293 and SH-SY5Y cells (Chang et al., 2016) were cultured in Dulbecco’s modified Eagles medium (DMEM) (293) or DMEM-F12 (SH-SY5Y) containing 10% fetal bovine serum (Invitrogen, Carlsbad, CA, USA), 5 μg/ml of blasticidin, and 100 μg/ml of hygromycin (InvivoGen, San Diego, CA, USA). Compound cytotoxicity was assessed by colorimetric assay for measuring cell metabolic activity. Briefly, 5 × 10^4 cells were plated (48-well plates), grown for 20 h, and treated with the test compounds ([…]). […], 20 µl of 3-(4,5-dimethylthiazol-2-yl)-2,5-diphenyltetrazolium bromide (MTT, 5 mg/ml in PBS; Sigma-Aldrich) was added to the cells and incubated at 37°C for 3 h. Then 200 µl of lysis buffer (10% Triton X-100, 0.1 N HCl, 18% isopropanol) was added and the absorbance of the insoluble product at OD 570 nm was measured by a microplate reader (FLx800 fluorescence microplate reader, Bio-Tek, Winooski, VT, USA). The half-maximal inhibitory concentration (IC50) was calculated using the interpolation method.\nFigure S1. Test compounds. (a) Solubility (in cell culture medium) of test compounds. (b) Molecular weight (MW), hydrogen bond donor (HBD), hydrogen bond acceptor (HBA), calculated octanol-water partition coefficient (cLogP), polar surface area (PSA), and predicted blood-brain barrier (BBB) score of test compounds. (c) Cytotoxicity of test compounds against ∆K280 TauRD-DsRed 293 and SH-SY5Y cells using the MTT assay. Uninduced 293 cells were plated on day 1 and treated with 0.1–10 μM test compounds on day 2. Cell viability was measured on day 5 (n = 3). In addition, uninduced SH-SY5Y cells were seeded with all trans retinoic acid (RA; 10 µM) on day 1 and treated with 0.1–10 μM test compounds on day 2. Cell viability was measured on day 9 (n = 3). To normalize, the relative viability in compound untreated cells was set at 100%. IC50 values are listed.",
  "note": "Like-named read-outs stand apart in the source and are kept apart here.",
  "data": [
    {"smiles": "O=C(c1ccccc1)c1cc2c(O)cccc2oc1=O", "note": "[LM‐031, 3‐benzoyl‐5‐hydroxychromen‐2‐one]", "values": [
      {"measurement": "IC50 at 7 days", "result": 6.8, "unit": "µM"}
    ]},
    {"smiles": "Nc1c(/N=N/c2ccc(-c3ccc(/N=N/c4cc(S(=O)(=O)O)c5ccccc5c4N)cc3)cc2)cc(S(=O)(=O)O)c2ccccc12", "note": "[congo red, reference compound]", "values": [
      {"measurement": "IC50 at 7 days", "result": 27.4, "unit": "µM"}
    ]},
    {"smiles": "C=CC(C)(C)c1cc(/C=C/C(=O)c2ccc(O)cc2)c(OC)cc1O", "note": "[licochalcone A, reference compound]", "values": [
      {"measurement": "IC50 at 7 days", "setting": "uninduced retinoic acid‐differentiated SH‐SY5Y cells, 7 days treatment, read-out: IC50 (MTT cytotoxicity)", "result": 5.8, "unit": "µM"}
    ]},
    {"smiles": "COc1ccc(C(=O)/C=C/c2cc(Br)ccc2O)cc1", "note": "[LM‐004]", "values": [
      {"measurement": "IC50 at 7 days", "result": 4.8, "unit": "µM"}
    ]}
  ]
}
